Experiments:
[1] = Pharmacokinetics / drug level measurements in the crossover QT study; type: in vivo, human
Procedure: (§1) The study of the cardiovascular effects of a carbamate compound of the present invention, shown as Formula 7 above, and hereafter referred to as “the test compound” was a single-center, double-blind, randomized, 3-way crossover, placebo- and active-control study. The test compound was studied at a dose of 1,500 mg/day (750 mg twice daily) both after acute dosing ([…], Day 1) and at steady state (Day 7). The study also evaluated the delayed post-treatment effects on Days 8-10. Moxifloxacin (400 mg, single oral dose) was used as an active control for the evaluation of QT/QTc on both Days 1 and 7.
Of the 38 subjects enrolled, 35 completed all 3 treatment conditions (placebo, moxifloxacin, test compound). Two subjects withdrew electively after receiving the first 3 days of the last treatment period (1 in moxifloxacin and 1 in test compound), and the last one withdrew because of an adverse event (respiratory tract infection) after the first treatment period (placebo), and before receiving any other treatment. Thus, all 38 subjects completed placebo treatment, 36 subjects completed the test compound treatment (and an additional subject provided data for Days 0 and 1 on test compound), and 36 completed moxifloxacin treatment (and 1 provided data for Days 0 and 1 on moxifloxacin). […]

healthy adults = assay: Double-blind, randomized, 3-way crossover, placebo- and active-control study of cardiovascular (QT/QTc) effects; type: in vivo, human; details: for Mean change from pretreatment baseline in QTc interval (mean ΔQTc), Bazett correction / Mean change from pretreatment baseline in QTc interval (mean ΔQTc), Individual Correction Method / Mean change from pretreatment baseline in QTc interval (mean ΔQTc), Fridericia correction: moxifloxacin 400 mg single oral dose; for Mean change from pretreatment baseline in QTc interval (mean ΔQTc), Fridericia correction: time-matched baseline Day 0; for Maximum decrease in QTc-F compared to baseline: individual subjects; for Maximum decrease in QTc-F compared to baseline / Number of subjects with QTc shortening between 30 and 60 ms compared to baseline: QTc-F; for Reduction of the mean QTc-F interval compared to pretreatment baseline (Day 0): stated as reduction
Procedure: as §1
(§2) Of the 38 subjects enrolled, 35 completed all 3 treatment conditions (placebo, moxifloxacin, test compound). Two subjects withdrew electively after receiving the first 3 days of the last treatment period (1 in moxifloxacin and 1 in test compound), and the last one withdrew because of an adverse event (respiratory tract infection) after the first treatment period (placebo), and before receiving any other treatment. Thus, all 38 subjects completed placebo treatment, 36 subjects completed the test compound treatment (and an additional subject provided data for Days 0 and 1 on test compound), and 36 completed moxifloxacin treatment (and 1 provided data for Days 0 and 1 on moxifloxacin). All 38 subjects were included in the safety evaluation; all collected drug level measurements and all available ECG recordings were included in data analyses.
The study population consisted of 38 healthy adults (20 men and 18 women), age 18 to 50 years, with normal 12-lead ECG (normal sinus rhythm, QTc and QRS intervals) and no history of cardiovascular disease. Of the 38 subjects enrolled, 35 completed all 3 treatment conditions (placebo, moxifloxacin, test compound). Two subjects withdrew electively after receiving the first 3 days of the last treatment period (1 in moxifloxacin and 1 in test compound), and the last one withdrew because of an adverse event (respiratory tract infection) after the first treatment period (placebo), and before receiving any.
as §2, with “The study population consisted of 38 healthy adults (20 men and 18 women), age 18 to 50 years, with normal 12-lead ECG (normal sinus rhythm, QTc and QRS intervals) and no history of cardiovascular disease. Of” for “Of”, “completed” for “completed the”
During each treatment period, 11 12-lead ECGs were collected at the same time of the day on Day 0 (baseline), Day 1 (initial treatment), and Day 7 (steady-state treatment); 4 additional ECGs were collected at exactly 24, 36, 48, and 72 hours after the last dose of Day 7 (post-treatment).
All ECG recordings of the same subject were read by the same blinded cardiologist. The QT intervals, from the onset of the QRS complex to the end of the T wave, were determined by the method of overlapping medians. The key QTc variables used in the assessment are listed below. The change from baseline (ΔQTc) was calculated using time-matched values. The following parameters were calculated for each subject and treatment by averaging over all time points during the 12-hour dosing interval. […]

[2] = Day 1 (acute dosing), test compound 250 mg
[3] = Day 1 (acute dosing), test compound 250 mg, averaged over 12-hour dosing interval
[4] = Day 7 (steady state), test compound 1,500 mg/day (750 mg twice daily)

Structure (SMILES) | Systemic exposure between the 2 single doses ([1]; 400 mg doses on Day 1 and Day 7) | Mean change from pretreatment baseline in QTc interval (mean ΔQTc), Bazett correction (healthy adults; [2]) | Mean change from pretreatment baseline in QTc interval (mean ΔQTc), Individual Correction Method (healthy adults; [2]) | Mean change from pretreatment baseline in QTc interval (mean ΔQTc), Fridericia correction (healthy adults; [3]) | Mean change from pretreatment baseline in QTc interval (mean ΔQTc), Bazett correction (healthy adults; [4]) | Mean change from pretreatment baseline in QTc interval (mean ΔQTc), Individual Correction Method (healthy adults; [4]) | Mean change from pretreatment baseline in QTc interval (mean ΔQTc), Fridericia correction (healthy adults; [4]) | Maximum decrease in QTc-F compared to baseline (healthy adults) [ms] | Number of subjects with QTc shortening between 30 and 60 ms compared to baseline (healthy adults; steady state (Day 7)) [subjects] | Pharmacokinetics (linearity / dose proportionality) ([1]; after single- and multiple-dose administration) | Gender effect with regard to QTc reduction (healthy adults; 20 men and 18 women) | Delayed post-treatment effect on QT/QTc intervals (healthy adults; Days 8-10) | Reduction of the mean QTc-F interval compared to pretreatment baseline (Day 0) (healthy adults; after initial treatment (Day 1)) [ms] | Reduction of the mean QTc-F interval compared to pretreatment baseline (Day 0) (healthy adults; at steady state (Day 7)) [ms] | Lowest QTc-F value (healthy adults; observed in 3 subjects (2 test compound, 1 placebo)) [ms] | Time after the last dose of Day 7 by which the QTc shortening effect disappeared (healthy adults; post-treatment ECGs at 24, 36, 48, 72 hours) [h] | Number of subjects with QTc-F slightly below 350 ms (healthy adults; steady state (Day 7)) [subjects]
COc1c(N2C[C@@H]3CCCN[C@@H]3C2)c(F)cc2c(=O)c(C(=O)O)cn(C3CC3)c12 [Moxifloxacin, reference compound] | consistent | +6.5 ms | +6.6 ms | +6.7 ms | +3.2 ms | +0.8 ms | +1.6 ms | 45 | 5 | – | – | – | – | – | – | – | –
NC(=O)OC[C@@H](O)c1ccccc1Cl [test compound] | – | -3.2 ms | -3.7 ms | -3.1 ms | -7.4 ms | -12.1 ms | -11.2 ms | 47 | 14 | linear and proportional | no gender effect | no apparent delayed post-treatment effect | 3.1 | 11.2 | 348 | ≤ 24 | 2

From patent publication US7846968B2, “Methods for QT interval control” (Janssen Pharmaceutica, N.V., priority 2005, dated 2010)
